Entries after “also recorded” stand apart in the source; their conditions may differ.
Columns and labels:
PML NB = assay type: cell-based, human; conditions: 24 hours
CNE1<EBV BX1> tumors = test: CNE1<EBV BX1> nasopharyngeal carcinoma xenograft, tumor volume; assay type: in vivo, male nude mice; conditions: 21 days of once daily treatment; GCV 100 μg/g, ATO 100 ng/g; carrier control just under double
EBV Zta protein = assay type: in vivo, male nude mice; conditions: tumors harvested at 21 days of treatment
[1] = tested on: MUTU1 cells (EBV positive Burkitt's lymphoma-derived); test: Viable cell count (trypan blue exclusion), MUTU1 cells; assay type: cell-based, human; conditions: 10 nM or 100 nM ATO, 2 and 3 days
[2] = tested on: MUTU1<DNE1> cells (EBV-negative); test: Viable cell count (trypan blue exclusion), MUTU1<DNE1> cells; assay type: cell-based, human; conditions: 10 nM or 100 nM ATO, 2 and 3 days
EBV Zta = test: Western blot of Zta in EBV-negative MUTU cells; assay type: cell-based, Epstein-Barr virus; conditions: 0, 10 nM, 100 nM ATO, day 3
Zta mRNA = Zta mRNA transcription in LCL<EBV1-13> cells; assay type: cell-based, Epstein-Barr virus; conditions: three days, 10 nM ATO
Method: FIGS. 8A-D. B-cells recently isolated from a patient were infected with EBV, allowed to grow out for several generations (only the EBV-infected cells would be able to grow out), and frozen until use. FIGS. 8A and B. FIGS. 8A and B graph the relative percent of viability of EBV-infected B-cells as just described (LCL<EBV1-13> cells) thawed and grown in one of: media alone (“control”), media and 45 μM ganciclovir (GCV), media and […] arsenic trioxide (ATO), or media and a combination of these concentrations of GCV and ATO. The bars show the relative viability of cells after 2 days of this treatment (“2 D,” FIG. 8A), and at three days (“3 D,” FIG. 8B). FIG. 8C. Epstein-Barr nuclear antigen (“EBNA”) driven by the C promoter (“Cp”) is transcribed only during the latent phase of the virus. FIG. 8C graphs the relative expression of EBNA Cp mRNA of LCL<EBV1-13> cells grown three days (“3 D”) in media alone (“control”), media and 45 μM ganciclovir (GCV), media and 10 nM arsenic trioxide (ATO), or media and a combination of these concentrations of GCV and ATO. […] FIG. 8D. FIG. 8D graphs the relative transcription of the viral immediate early protein Zta mRNA of LCL<EBV1-13> cells grown three days (“3 D”) in media alone (“control”), media and 45 μM ganciclovir (GCV), media and 10 nM arsenic trioxide (ATO), or media and a combination of these concentrations of GCV and ATO. […]

[3] = dosage of ATO approved for relapsed or refractory acute promyelocytic leukemia (Fox et al., 2008); cited from earlier work

Sequence of PML NB (P29590 1-418 limits assumed): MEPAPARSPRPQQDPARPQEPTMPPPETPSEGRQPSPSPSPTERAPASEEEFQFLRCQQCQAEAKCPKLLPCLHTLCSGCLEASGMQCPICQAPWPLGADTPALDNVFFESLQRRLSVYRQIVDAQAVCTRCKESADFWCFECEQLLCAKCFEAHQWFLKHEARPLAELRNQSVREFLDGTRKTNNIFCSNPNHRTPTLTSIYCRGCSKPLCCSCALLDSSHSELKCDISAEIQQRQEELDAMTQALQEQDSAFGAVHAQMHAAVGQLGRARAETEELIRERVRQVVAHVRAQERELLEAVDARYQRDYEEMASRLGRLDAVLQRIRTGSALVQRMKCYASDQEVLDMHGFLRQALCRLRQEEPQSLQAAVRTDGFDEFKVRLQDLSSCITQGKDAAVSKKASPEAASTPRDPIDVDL

arsenic trioxide [ATO]
PML NB immunofluorescence signal (PML NB; 12.5 nM ATO): complete loss; also recorded: below that of baseline untreated uninfected cells
ATO concentration resulting in reduction of PML NB size, number and fluorescent intensity (PML NB; EBV infected A549 cells, 'as low as'): 6.25 nM
PML NB immunofluorescence intensity, dose response (PML NB; varying doses of ATO): diminished by exposure to ATO in a dose dependent manner
tumor size increase over size at day 7 (pre-treatment) (CNE1<EBV BX1> tumors): approximately 10%
Zta expression in tumor explant tissue (EBV Zta protein): large pockets of reactivation
cell viability, EBV positive MUTU cells [1]: dose and time dependent suppression of cell viability
viable cells, EBV-negative MUTU cells [2]: No effect
Zta expression (Western blot), EBV-negative MUTU cells (EBV Zta): absent; also recorded: no Zta expression
relative transcription of Zta mRNA (Zta mRNA): approximately fourfold higher
peak serum arsenic level [3]: ~400 nM

From US20140017336A1, “CO-ADMINISTRATION OF ARSENIC COMPOUNDS AND ANTI-HERPES VIRUS ANTI-VIRALS” (priority 2011, published 2014)
